Measurements as given in the supplement of paper PMC10307832.

Legend:
Assay in all cases: relative viability (nuclei count vs DMSO), 5 days (fraction); higher = more cells survive
Afatinib = compound: CN(C)C/C=C/C(=O)Nc1cc2c(Nc3ccc(F)c(Cl)c3)ncnc2cc1O[C@H]1CCOC1 [Afatinib]
Outline: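 A plate was accepted only when its control CV was below 25% and the cells had doubled at least once. Viability is defined from nuclear counts as treated wells divided by vehicle wells, with the median taken across plates. That median covers lung cancer cell lines grown in 1536-well plates, dosed by pinning at five √10-spaced library-drug concentrations, and counted in MetaXpress from 4× Hoechst images after 5 days.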

Afatinib + Olaparib = compound: CN(C)C/C=C/C(=O)Nc1cc2c(Nc3ccc(F)c(Cl)c3)ncnc2cc1O[C@H]1CCOC1 [Afatinib] + O=C(c1cc(Cc2n[nH]c(=O)c3ccccc23)ccc1F)N1CCN(C(=O)C2CC2)CC1 [Olaparib] (partner 8 µM)
Outline: (§1)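 Five library-drug doses in √10 steps were combined with a fixed anchor-drug dose, or a single drug was given alone, by pin tool to lung cancer cell lines in 1536-well plates the day after seeding. Nuclei were stained and counted after 5 days. Relative viability is the nuclei count in treated wells over that in vehicle wells, taken as the median of duplicate plates.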

Afatinib + Phenformin = compound: CN(C)C/C=C/C(=O)Nc1cc2c(Nc3ccc(F)c(Cl)c3)ncnc2cc1O[C@H]1CCOC1 [Afatinib] + N=C(N)NC(=N)NCCc1ccccc1 [Phenformin] (partner 250 µM)
Outline: as §1

Afatinib + Trametinib = compound: CN(C)C/C=C/C(=O)Nc1cc2c(Nc3ccc(F)c(Cl)c3)ncnc2cc1O[C@H]1CCOC1 [Afatinib] + CC(=O)Nc1cccc(-n2c(=O)n(C3CC3)c(=O)c3c(Nc4ccc(I)cc4F)n(C)c(=O)c(C)c32)c1 [Trametinib] (partner 0.02 µM)
Outline: as §1

Cell Line	relative viability (Afatinib; 0.005 µM)	relative viability (Afatinib; 0.01581 µM)	relative viability (Afatinib; 0.05 µM)	relative viability (Afatinib; 0.1581 µM)	relative viability (Afatinib; 0.5 µM)	relative viability (Afatinib + Olaparib; first compound 0.005 µM)	relative viability (Afatinib + Olaparib; first compound 0.01581 µM)	relative viability (Afatinib + Olaparib; first compound 0.05 µM)	relative viability (Afatinib + Olaparib; first compound 0.1581 µM)	relative viability (Afatinib + Olaparib; first compound 0.5 µM)	relative viability (Afatinib + Phenformin; first compound 0.005 µM)	relative viability (Afatinib + Phenformin; first compound 0.01581 µM)	relative viability (Afatinib + Phenformin; first compound 0.05 µM)	relative viability (Afatinib + Phenformin; first compound 0.1581 µM)	relative viability (Afatinib + Phenformin; first compound 0.5 µM)	relative viability (Afatinib + Trametinib; first compound 0.005 µM)	relative viability (Afatinib + Trametinib; first compound 0.01581 µM)	relative viability (Afatinib + Trametinib; first compound 0.05 µM)	relative viability (Afatinib + Trametinib; first compound 0.1581 µM)	relative viability (Afatinib + Trametinib; first compound 0.5 µM)
NCI-H2126	1.01	0.932	0.816	0.679	0.693	0.934	0.881	0.85	0.645	0.665	0.584	0.509	0.485	0.434	0.483	0.529	0.585	0.493	0.462	0.459
HCC-44	1.08	1	1.01	1.02	0.982	0.958	0.921	0.974	1	1.01	0.233	0.184	0.232	0.395	0.239	1.04	1.09	1.01	1.04	1.12
NCI-H460	1.01	1	0.996	1.01	1	0.373	0.407	0.439	0.458	0.491	0.549	0.517	0.536	0.558	0.498	0.161	0.139	0.187	0.133	0.136
SK-LU-1	1.07	1	1.07	1.05	1.06	0.49	0.447	0.414	0.492	0.452	0.634	0.536	0.605	0.511	0.47	0.504	0.405	0.604	0.526	0.483
NCI-H322M	0.705	0.495	0.533	0.545	0.419	0.743	0.573	0.559	0.559	0.531	0.636	0.433	0.535	0.463	0.446	0.492	0.463	0.458	0.43	0.442
EKVX	0.779	0.718	0.51	0.292	0.334	0.602	0.687	0.534	0.283	0.227	0.218	0.222	0.215	0.129	0.197	0.255	0.246	0.216	0.16	0.162
NCI-H1734	0.998	0.979	1.02	0.968	1.03	0.666	0.569	0.621	0.58	0.551	0.419	0.383	0.412	0.351	0.405	0.684	0.671	0.715	0.683	0.692
SW 900	0.951	0.692	0.844	0.872	0.828	0.757	0.726	0.89	0.664	0.77	0.642	0.499	0.682	0.486	0.399	0.572	0.657	0.759	0.745	0.581
NCI-H520	1.08	0.978	0.995	1	0.96	0.313	0.32	0.329	0.365	0.368	0.562	0.593	0.689	0.609	0.57	0.892	0.633	0.725	0.734	0.545
EPLC-272H	0.915	0.687	0.831	0.718	0.718	0.567	0.776	0.727	0.734	0.595	0.35	0.272	0.231	0.24	0.264	0.251	0.265		0.229	0.27
UMC-11	1.03	0.955	1.03	0.959	0.983	0.386	0.402	0.405	0.368	0.394	0.358	0.33	0.324	0.314	0.303	0.73	0.732	0.667	0.7	0.908
NCI-H1792	1.09	0.786	0.853	0.988	0.661	0.437	0.531	0.506	0.526	0.489	0.16	0.198	0.398	0.2	0.238	0.56	0.393	0.562	0.538	0.427
NCI-H1993	0.935	0.75	0.84	0.776	0.692	0.828	0.883	0.641	0.557	0.704	0.596	0.645	0.656	0.639	0.589	0.593	0.442	0.58	0.546	0.53
NCI-H596	1.09	0.913	0.933	0.936	0.928	0.706	0.707	0.697	0.58	0.685	0.804	0.804	0.729	0.753	0.685	0.783	0.725	0.834	0.782	0.797
NCI-H1793	0.829	0.616	0.558	0.418	0.536	0.659	0.633	0.461	0.398	0.582	0.244	0.316	0.325	0.273	0.321	0.436	0.377	0.432	0.345	0.401
NCI-H1395	1.07	0.744	1	1.05	0.849	0.471	0.475	0.463	0.483	0.49	0.476	0.41	0.447	0.442	0.449	1.13	0.832	1.09	0.911	1.06

Cell Line	relative viability (Afatinib; 0.005 µM)	relative viability (Afatinib; 0.01581 µM)	relative viability (Afatinib; 0.05 µM)	relative viability (Afatinib; 0.1581 µM)	relative viability (Afatinib; 0.5 µM)	relative viability (Afatinib + Olaparib; first compound 0.005 µM)	relative viability (Afatinib + Olaparib; first compound 0.01581 µM)	relative viability (Afatinib + Olaparib; first compound 0.05 µM)	relative viability (Afatinib + Olaparib; first compound 0.1581 µM)	relative viability (Afatinib + Olaparib; first compound 0.5 µM)	relative viability (Afatinib + Phenformin; first compound 0.005 µM)	relative viability (Afatinib + Phenformin; first compound 0.01581 µM)	relative viability (Afatinib + Phenformin; first compound 0.05 µM)	relative viability (Afatinib + Phenformin; first compound 0.1581 µM)	relative viability (Afatinib + Phenformin; first compound 0.5 µM)	relative viability (Afatinib + Trametinib; first compound 0.005 µM)	relative viability (Afatinib + Trametinib; first compound 0.01581 µM)	relative viability (Afatinib + Trametinib; first compound 0.05 µM)	relative viability (Afatinib + Trametinib; first compound 0.1581 µM)	relative viability (Afatinib + Trametinib; first compound 0.5 µM)
HCC-827	0.172	0.169	0.212	0.175	0.162	0.135	0.0842	0.145	0.158	0.142	0.137	0.119	0.152	0.119	0.137	0.16	0.165	0.179	0.161	0.15
ChaGo-K-1	1.07	1	0.996	0.977	0.999	0.466	0.439	0.447	0.396	0.397	0.474	0.466	0.444	0.45	0.431	0.922	0.911	0.885	0.866	0.813
NCI-H2228	1.24	0.884	0.812	0.953	1.05	0.935	0.518	0.704	0.506	0.579	0.279	0.273	0.31	0.257	0.242	0.833	0.395	0.544	0.467	0.466
NCI-H2170	0.907	0.837	0.445	0.276	0.253	0.624	0.598	0.475	0.169	0.155	0.368	0.383	0.335	0.216	0.208	0.892	0.853	0.615	0.169	0.156
EMC-BAC-2	1.12	0.821	1.14	1.01	1.02	0.53	0.501	0.595	0.554	0.531	0.502	0.512	0.563	0.462	0.476	0.945	0.888	0.823	0.873	0.872
NCI-H522	0.929	0.785	0.703	0.786	0.735	0.573	0.726	0.639	0.532	0.464	0.729	0.584	0.643	0.532	0.698	0.58	0.781	0.79	0.667	0.545
NCI-H23	1.1	0.976	0.922	0.97	0.792	0.331	0.303	0.37	0.291	0.333	0.847	0.825	0.808	0.772	0.718	0.358	0.323	0.359	0.331	0.345
RERF-LC-KJ	0.92	0.938	0.908	0.794	0.831	0.851	0.86	0.906	0.865	0.828	0.423	0.393	0.342	0.315	0.335	0.852	0.806	0.723	0.684	0.674
NCI-H358	0.825	0.566	0.455	0.282	0.302	0.48	0.586	0.314	0.145		0.266	0.171	0.171	0.163	0.175	0.119	0.115	0.13	0.102	0.127
LC-2-ad	1.06	0.957	1.04	0.956	1.05	0.752	0.754	0.724	0.707	0.701	0.66	0.514	0.585	0.541	0.52	0.954	0.914	0.92	0.832	0.87
HCC-15	1.04	1.06	1.04	0.979	0.999	0.662	0.765	0.744	0.668	0.722	0.487	0.487	0.488	0.47	0.517	0.338	0.393	0.325	0.35	0.344
NCI-H2405	1.01	0.959	1.08	0.957	1.02	0.885	0.934	0.864	0.874	0.852	0.339	0.413	0.435	0.363	0.392	0.597	0.482	0.529	0.537	0.594
LXF-289	1.01	0.97	0.947	0.94	0.94	1.12	1.06	1.09	1.04	1.03	0.492	0.521	0.534	0.468	0.471	0.702	0.716	0.616	0.613	0.647
CAL-12T	1	0.843	0.748	0.489	0.654	0.763	0.668	0.616	0.47	0.497	0.57	0.388	0.361	0.244	0.407	0.278	0.273	0.286	0.247	0.261
COR-L23	1.08	0.944	1.11	1.04	1.01	0.325	0.325	0.358	0.369	0.366	0.479	0.446	0.449	0.437	0.45	0.625	0.648	0.723	0.582	0.608
